According to ChEMBL document CHEMBL4480443, “Synthesis and biological evaluation of solubilized sulfonamide analogues of the phosphatidylinositol 3-kinase inhibitor ZSTK474” (Bioorg Med Chem, 2019):

Assays:
physchem [1] = details: buffer
physchem [2] = details: aqueous medium with DMSO
[3] = 0.25 h

COc1cccc2c1nc(C(F)F)n2-c1nc(N2CCOCC2)nc(N2CCN(S(=O)(=O)CCN(C)C)CC2)n1.CS(=O)(=O)O
solubility (physchem [1]): > 59 µg/mL

COc1cccc2c1nc(C(F)F)n2-c1nc(N2CCOCC2)nc(N2CCN(S(=O)(=O)CCN(C)C)CC2)n1.Cl
solubility at 0.25 h (physchem [2]): 24 µg/mL

COc1cccc2c1nc(C(F)F)n2-c1nc(N2CCOCC2)nc(N2CCN(S(C)(=O)=O)CC2)n1
solubility [3]: Insoluble
